Results as given in ChEMBL document CHEMBL1146802, “Glyco-optimization of aminoglycosides: new aminoglycosides as novel anti-infective agents” (2004).
≈ marks a conversion by molar mass, not a printed value.

Experiments:
Type in all cases: functional
[1] = test system: Pseudomonas aeruginosa; test: In vitro inhibitory activity against Pseudomonas aeruginosa ATCC 35151
[2] = test system: Staphylococcus aureus; test: In vitro inhibitory activity against Staphylococcus aureus ATCC 29213
[3] = test system: Pseudomonas aeruginosa; test: In vitro inhibitory activity against Pseudomonas aeruginosa ATCC 27853
[4] = test system: Enterococcus faecalis; test: In vitro inhibitory activity against Enterococcus faecalis ATCC 29212
[5] = test system: Pseudomonas aeruginosa; test: In vitro inhibitory activity against Pseudomonas aeruginosa PAO-1
[6] = test system: Escherichia coli; test: In vitro inhibitory activity against Escherichia coli ATCC 25922
[7] = test system: Staphylococcus aureus; test: In vitro inhibitory activity against Staphylococcus aureus MRSA 33591
[8] = test system: Escherichia coli; test: In vitro inhibitory activity against Escherichia coli ATCC 25922; Value ranges from 0.25-1 ug/mL
[9] = test system: Enterococcus faecalis; test: In vitro inhibitory activity against Enterococcus faecalis ATCC 29212; Value ranges from 8-32 ug/mL
[10] = Pseudomonas aeruginosa, ATCC 35151, read-out: MIC
[11] = Pseudomonas aeruginosa, read-out: MIC
[12] = Staphylococcus aureus, ATCC 29213, read-out: MIC
[13] = Pseudomonas aeruginosa, ATCC 27853, read-out: MIC
[14] = Enterococcus faecalis, ATCC 29212, read-out: MIC
[15] = Escherichia coli, ATCC 25922, read-out: MIC

| Compound | MIC [1, 10] [µg/mL] | MIC [2] [µg/mL] | MIC [3] [µg/mL] | MIC [4] [µg/mL] | MIC [5, 11] [µg/mL] | MIC [2, 12] [µg/mL] | MIC [3, 13] [µg/mL] | MIC [4, 14] [µg/mL] | MIC [6, 15] [µg/mL] | MIC [7] [µg/mL] | MIC [6] [µg/mL] | MIC [1] [µg/mL] | MIC [5] [µg/mL] | MIC [8] [µg/mL] | MIC [9] [µg/mL] |
| --- | --- | --- | --- | --- | --- | --- | --- | --- | --- | --- | --- | --- | --- | --- | --- |
| NCC1OC(OC2C(N)CC(N)C(OC3OC(CO)C(O)C(N)C3N)C2O)C(N)CC1O (stereo in doubt; form 1) | 1 (≈ 2.14 µM) | 1 (≈ 2.14 µM) | 2 (≈ 4.29 µM) | 32 (≈ 68.6 µM) | 1 (≈ 2.14 µM) | – | – | – | – | – | – | – | – | – | – |
| CC1OC(OC2C(N)CC(N)C(OC3OC(CN)C(O)CC3N)C2O)C(N)C(O)C1O (centres undefined) | – | – | – | – | – | > 64 | > 64 | > 64 | > 64 | > 64 | – | – | – | – | – |
| NCC1OC(OC2C(N)CC(N)C(OC3OCC(O)C(N)C3O)C2O)C(N)CC1O (stereo in doubt; 8u) | – | 2 (≈ 4.57 µM) | 2 (≈ 4.57 µM) | – | – | – | – | – | – | – | 2 (≈ 4.57 µM) | – | – | – | – |
| NCC1OC(OC2C(N)CC(N)C(OC3OCC(O)C(O)C3O)C2O)C(N)CC1O (centres undefined) | > 64 | – | – | – | > 64 | > 64 | > 64 | > 64 | > 64 | > 64 | – | – | – | – | – |
| NCC1OC(OC2C(N)CC(N)C(OC3OC(CO)C(N)C(N)C3O)C2O)C(N)CC1O (stereo in doubt; form 2) | – | 1 (≈ 2.14 µM) | 2 (≈ 4.29 µM) | 64 (≈ 137 µM) | – | – | – | – | – | – | – | 1 (≈ 2.14 µM) | 2 (≈ 4.29 µM) | – | – |
| NCC1OC(OC2C(N)CC(N)C(OC3OC(CO)C(N)C(O)C3N)C2O)C(N)CC1O (stereo in doubt; form 1) | – | 8 (≈ 17.1 µM) | 32 (≈ 68.6 µM) | >64 | – | – | – | – | – | – | 32 (≈ 68.6 µM) | 16 (≈ 34.3 µM) | 16 (≈ 34.3 µM) | – | – |
| NCC1OC(OC2C(N)CC(N)C(OC3OC(CO)C(O)C(N)C3N)C2O)C(N)CC1O (stereo in doubt; form 2) | – | 64 (≈ 137 µM) | >64 | – | – | – | – | > 64 | > 64 | > 64 | – | – | – | – | – |
| CC1CC(N(C)C)C(O)C(OC2C(N)CC(N)C(OC3OC(CN)C(O)CC3N)C2O)O1 (centres undefined) | 32 (≈ 69 µM) | – | – | – | 64 (≈ 138 µM) | 32 (≈ 69 µM) | > 64 | > 64 | 16 (≈ 34.5 µM) | > 64 | – | – | – | – | – |
| NC[C@H]1O[C@H](O[C@H]2[C@H](O)[C@@H](O[C@H]3O[C@H](CO)[C@@H](O)[C@H](N)[C@H]3O)[C@H](N)C[C@@H]2N)[C@H](N)C[C@@H]1O [TOBRAMYCIN] | 0.5 (≈ 1.07 µM) | – | – | – | 0.5 (≈ 1.07 µM) | 0.5 (≈ 1.07 µM) | 0.5 (≈ 1.07 µM) | – | – | > 64 | – | – | – | > 1 | > 32 |
| NCC1OC(OC2C(N)CC(N)C(OC3OCC(O)C(O)C3N)C2O)C(N)CC1O (centres undefined) | – | – | – | – | – | 16 (≈ 36.6 µM) | 16 (≈ 36.6 µM) | > 64 | 8 (≈ 18.3 µM) | > 64 | – | – | – | – | – |
| NCC1OC(OC2C(N)CC(N)C(OC3OC(CN)C(O)C(O)C3N)C2O)C(N)CC1O (centres undefined) | 16 (≈ 34.3 µM) | – | – | – | 8 (≈ 17.1 µM) | 8 (≈ 17.1 µM) | 16 (≈ 34.3 µM) | > 64 | 32 (≈ 68.6 µM) | > 64 | – | – | – | – | – |
| NC[C@@H]1O[C@H](O[C@H]2[C@H](O)[C@H](O[C@H]3O[C@@H](CO)[C@@H](O)[C@H](O)[C@@H]3O)[C@H](N)C[C@H]2N)[C@@H](N)C[C@@H]1O | 16 (≈ 34.2 µM) | – | – | – | 8 (≈ 17.1 µM) | 32 (≈ 68.3 µM) | 16 (≈ 34.2 µM) | > 64 | 32 (≈ 68.3 µM) | > 64 | – | – | – | – | – |
| CC1OC(OC2C(N)CC(N)C(OC3OC(CN)C(O)CC3N)C2O)C(O)C(O)C1O (centres undefined) | > 64 | – | – | – | > 64 | > 64 | > 64 | > 64 | > 64 | > 64 | – | – | – | – | – |
| NCC1OC(OC2C(N)CC(N)C(OC3OC(CO)C(N)C(O)C3N)C2O)C(N)CC1O (stereo in doubt; form 2) | – | 1 (≈ 2.14 µM) | 2 (≈ 4.29 µM) | – | – | – | – | 32 (≈ 68.6 µM) | – | > 64 | 2 (≈ 4.29 µM) | 1 (≈ 2.14 µM) | 1 (≈ 2.14 µM) | – | – |
| NCC1OC(OC2C(N)CC(N)C(OC3OCC(O)C(N)C3O)C2O)C(N)CC1O (stereo in doubt; 8v) | – | 32 (≈ 73.1 µM) | >64 | – | – | – | – | > 64 | – | > 64 | >64 | – | – | – | – |
| NCC1OC(OC2C(N)CC(N)C(OC3OC(CO)C(N)C(N)C3O)C2O)C(N)CC1O (stereo in doubt; form 1) | – | 32 (≈ 68.6 µM) | >64 | – | – | – | – | > 64 | – | > 64 | – | >64 | >64 | – | – |
